Assay results published in DBAASP.
Converted amounts (≈) assume the structure as drawn.

Columns and labels:
Test in all cases: ≥ marks a high value that may be exact or a test limit, other limits are often not marked, values filed in µg/mL are converted to µM
Escherichia coli JM109 = system: Escherichia coli JM109
Pseudomonas aeruginosa = system: Pseudomonas aeruginosa
[1] = system: Staphylococcus aureus ATCC 6538P
Staphylococcus aureus = system: Staphylococcus aureus
Bacillus subtilis = system: Bacillus subtilis
Escherichia coli = system: Escherichia coli
Klebsiella pneumoniae = system: Klebsiella pneumoniae
Micrococcus luteus = system: Micrococcus luteus
Proteus mirabilis = system: Proteus mirabilis
Salmonella typhimurium = system: Salmonella typhimurium
Shigella dysenteriae = system: Shigella dysenteriae
[2] = system: Staphylococcus epidermidis
[3] = system: Enterococcus faecalis NCTC 12697
Bacillus subtilis 168 = system: Bacillus subtilis 168
[4] = system: Candida albicans F7-39/IDE99
Escherichia coli B = system: Escherichia coli B
[5] = system: Bacillus subtilis ATCC 6633
[6] = system: Enterococcus faecalis ATCC 29212
[7] = system: Klebsiella pneumoniae ATCC 13883
[8] = system: Pseudomonas aeruginosa ATCC 27853
[9] = system: Salmonella enterica subsp. enterica serovar Typhimurium ATCC 14028
[10] = system: Staphylococcus aureus ATCC 25923
[11] = system: Streptococcus pyogenes ATCC 19615
[12] = system: Candida albicans ATCC 2002
[13] = system: Escherichia coli ATCC 25922
[14] = system: Staphylococcus aureus ATCC 2592

Compound | MIC (Pseudomonas aeruginosa) [µM] | MIC (Staphylococcus aureus) [µM] | MIC (Bacillus subtilis) [µM] | MIC (Escherichia coli) [µM] | MIC (Klebsiella pneumoniae) [µM] | MIC (Micrococcus luteus) [µM] | MIC (Proteus mirabilis) [µM] | MIC (Salmonella typhimurium) [µM] | MIC (Shigella dysenteriae) [µM] | MIC [2] [µM] | further results
CC[C@H](C)[C@H](NC(=O)[C@H](C)NC(=O)[C@H](CC(C)C)NC(=O)[C@H](CC(C)C)NC(=O)[C@H](Cc1c[nH]c2ccccc12)NC(=O)[C@H](C)N)C(=O)N[C@@H](CCCN=C(N)N)C(=O)N[C@@H](CCCN=C(N)N)C(=O)N[C@@H](CCCN=C(N)N)C(N)=O [AWLLAIRRR] | 3.46 (≈ 4 µg/mL) | 17.3 (≈ 20 µg/mL) | – | – | – | – | – | – | – | – | MIC (Escherichia coli JM109): 2.6 µM (≈ 3 µg/mL); MIC [1]: 1.73 µM (≈ 2 µg/mL)
CC(C)C[C@H](NC(=O)[C@H](C)NC(=O)CNC(=O)[C@H](CC(C)C)NC(=O)[C@@H](N)Cc1ccccc1)C(=O)N[C@@H](Cc1ccccc1)C(=O)N[C@@H](CCCCN)C(=O)N[C@@H](CC(C)C)C(=O)N[C@@H](C)C(=O)N[C@@H](CO)C(=O)N[C@@H](CCCCN)C(=O)O [FLGALFKLASK] | 167 (≈ 200 µg/mL) | 20.9 (≈ 25 µg/mL) | 20.9 (≈ 25 µg/mL) | 83.7 (≈ 100 µg/mL) | 167 (≈ 200 µg/mL) | 10.5 (≈ 12.5 µg/mL) | ≥ 167 | ≥ 167 | ≥ 83.7 | ≥ 83.7 | –
CC(C)C[C@H](NC(=O)[C@H](Cc1ccccc1)NC(=O)CNC(=O)[C@H](CC(C)C)NC(=O)[C@@H](N)Cc1ccccc1)C(=O)N[C@@H](Cc1ccccc1)C(=O)N[C@@H](CCCCN)C(=O)N[C@H](C(=O)N[C@@H](C)C(=O)N[C@@H](CO)C(=O)N[C@@H](CCCCN)C(=O)O)C(C)C [FLGFLFKVASK] | > 159 | 9.95 (≈ 12.5 µg/mL) | 9.95 (≈ 12.5 µg/mL) | 79.6 (≈ 100 µg/mL) | 79.6 (≈ 100 µg/mL) | 9.95 (≈ 12.5 µg/mL) | ≥ 159 | ≥ 159 | ≥ 79.6 | ≥ 39.8 | –
CC(C)C[C@H](NC(=O)[C@H](Cc1c[nH]c2ccccc12)NC(=O)CNC(=O)[C@H](CC(C)C)NC(=O)[C@@H](N)Cc1ccccc1)C(=O)N[C@@H](Cc1ccccc1)C(=O)N[C@@H](CCCCN)C(=O)N[C@H](C(=O)N[C@@H](C)C(=O)N[C@@H](CO)C(=O)N[C@@H](CCCCN)C(=O)O)C(C)C [FLGWLFKVASK] | 77.2 (≈ 100 µg/mL) | 2.39 (≈ 3.1 µg/mL) | 4.86 (≈ 6.3 µg/mL) | 19.3 (≈ 25 µg/mL) | 9.65 (≈ 12.5 µg/mL) | 19.3 (≈ 25 µg/mL) | ≥ 154 | ≥ 38.6 | 9.65 (≈ 12.5 µg/mL) | 9.65 (≈ 12.5 µg/mL) | –
CC(C)C[C@H](NC(=O)[C@H](C)NC(=O)[C@H](Cc1c[nH]c2ccccc12)NC(=O)[C@H](CCCCN)NC(=O)[C@@H]1CCCN1C(=O)[C@H](CC(C)C)NC(=O)[C@@H](N)Cc1ccccc1)C(=O)N[C@@H](CCCCN)C(=O)N[C@@H](Cc1c[nH]c2ccccc12)C(=O)N[C@@H](C)C(=O)N[C@@H](C)C(=O)N[C@@H](CCCCN)C(N)=O [FLPKWALKWAAK] | – | – | – | – | – | – | – | – | – | – | MIC [3]: ≥ 512 µM
CSCC[C@H](NC(=O)[C@H](CCCCN)NC(=O)[C@H](Cc1ccccc1)NC(=O)CN)C(=O)N[C@@H](C)C(=O)N[C@@H](CC(C)C)C(=O)N[C@@H](CCCCN)C(=O)N[C@@H](CC(C)C)C(=O)N[C@@H](CC(C)C)C(=O)N[C@@H](CCCCN)C(=O)N[C@@H](CCCCN)C(=O)N[C@H](C(=O)N[C@@H](CC(C)C)C(N)=O)C(C)C [GFKMALKLLKKVL] | 11.3 (≈ 16.8 µg/mL) | 5 (≈ 7.44 µg/mL) | – | – | – | – | – | – | – | – | MIC (Bacillus subtilis 168): 1.3 µM (≈ 1.93 µg/mL); MIC [4]: 4.3 µM (≈ 6.4 µg/mL); MIC (Escherichia coli B): 2.3 µM (≈ 3.42 µg/mL)
CC[C@H](C)[C@H](NC(=O)[C@H](CC(C)C)NC(=O)[C@H](Cc1cnc[nH]1)NC(=O)CNC(=O)[C@H](CC(C)C)NC(=O)[C@@H](NC(=O)[C@H](CCCCN)NC(=O)[C@H](CCCCN)NC(=O)[C@H](Cc1c[nH]c2ccccc12)NC(=O)[C@H](CCCCN)NC(=O)CN)[C@@H](C)CC)C(=O)N[C@@H](CCCN=C(N)N)C(N)=O [GKWKKILGHLIR] | 30 (≈ 43.4 µg/mL) | 28.3 (≈ 41 µg/mL) | – | – | – | – | – | – | – | – | MIC (Bacillus subtilis 168): 1.2 µM (≈ 1.74 µg/mL); MIC [4]: 5.3 µM (≈ 7.67 µg/mL); MIC (Escherichia coli B): 2.7 µM (≈ 3.91 µg/mL)
CC[C@H](C)[C@H](NC(=O)[C@H](Cc1cnc[nH]1)NC(=O)[C@H](CCCCN)NC(=O)[C@H](CC(C)C)NC(=O)[C@H](CC(C)C)NC(=O)[C@H](CO)NC(=O)[C@H](CCSC)NC(=O)[C@H](Cc1c[nH]c2ccccc12)NC(=O)[C@H](CCCCN)NC(=O)CN)C(=O)N[C@@H](CC(C)C)C(=O)N[C@@H](CCCCN)C(N)=O [GKWMSLLKHILK] | 42.1 (≈ 61.2 µg/mL) | 8.1 (≈ 11.8 µg/mL) | – | – | – | – | – | – | – | – | MIC (Bacillus subtilis 168): 1 µM (≈ 1.45 µg/mL); MIC [4]: 6.6 µM (≈ 9.59 µg/mL); MIC (Escherichia coli B): 2.5 µM (≈ 3.63 µg/mL)
CC[C@H](C)[C@H](N)C(=O)N[C@@H](CC(N)=O)C(=O)N[C@@H](Cc1c[nH]c2ccccc12)C(=O)N[C@@H](CCCCN)C(=O)N[C@@H](CCCCN)C(=O)N[C@H](C(=O)N[C@@H](C)C(=O)N[C@@H](CCC(=O)O)C(=O)N[C@H](C(=O)NCC(=O)N[C@@H](CCCCN)C(=O)N[C@@H](CCC(N)=O)C(=O)N[C@H](C(=O)N[C@@H](CC(C)C)C(=O)N[C@@H](CO)C(=O)N[C@@H](C)C(=O)N[C@@H](CC(C)C)C(N)=O)C(C)C)[C@@H](C)CC)[C@@H](C)CC [INWKKIAEIGKQVLSAL] | – | – | – | – | – | – | – | – | – | – | MIC [5]: 1.05 µM (≈ 2 µg/mL); MIC (Escherichia coli JM109): 4.19 µM (≈ 8 µg/mL)
CC(C)C[C@H](NC(=O)[C@@H](NC(=O)[C@H](CCCCN)NC(=O)[C@H](CO)NC(=O)[C@H](C)NC(=O)[C@@H](NC(=O)[C@H](CCCCN)NC(=O)[C@H](Cc1ccccc1)NC(=O)[C@@H](N)CC(C)C)C(C)C)C(C)C)C(=O)N1CCC[C@H]1C(=O)N[C@@H](CO)C(=O)N[C@H](C(=O)N[C@@H](CCCCN)C(=O)O)C(C)C [LFKVASKVLPSVK] | > 141 | > 141 | ≥ 141 | > 141 | > 141 | ≥ 141 | ≥ 141 | ≥ 141 | ≥ 141 | ≥ 141 | –
CC[C@H](C)[C@H](NC(=O)[C@@H]1CCCN1C(=O)[C@H](CC(C)C)NC(=O)[C@@H](N)CC(C)C)C(=O)N[C@H](C(=O)NCC(=O)N[C@@H](CC(N)=O)C(=O)N[C@@H](CC(C)C)C(=O)N[C@@H](CC(C)C)C(=O)N[C@@H](CCCCN)C(=O)N[C@@H](CO)C(=O)N[C@@H](CC(C)C)C(=O)N[C@@H](CC(C)C)C(=O)NCC(=O)N[C@@H](C)C(=O)N[C@@H](CCCCN)C(=O)N[C@@H](CCCN=C(N)N)C(=O)N[C@@H](CCCCN)C(=O)N[C@@H](CCCN=C(N)N)C(=O)N[C@@H](C)C(=O)NCC(N)=O)C(C)C [LLPIVGNLLKSLLGAKRKRAG] | – | – | ≥ 100 | 100 (≈ 222 µg/mL) | – | – | – | – | – | – | MIC [6]: > 200 µM; MIC [7]: ≥ 200 µM; MIC [8]: 100 µM (≈ 222 µg/mL); MIC [9]: > 200 µM; MIC [10]: 100 µM (≈ 222 µg/mL); MIC [11]: ≥ 200 µM
CC(C)C[C@H](NC(=O)[C@H](CCCCN)NC(=O)[C@H](CCCN=C(N)N)NC(=O)[C@H](Cc1c[nH]c2ccccc12)NC(=O)[C@H](Cc1c[nH]c2ccccc12)NC(=O)[C@H](CCCCN)NC(=O)[C@H](CCCCN)NC(=O)[C@H](Cc1c[nH]c2ccccc12)NC(=O)[C@H](CCCN=C(N)N)NC(=O)[C@H](CCCCN)NC(=O)[C@@H](N)C(C)C)C(=O)N[C@@H](CCCCN)C(=O)N[C@@H](CCCCN)C(=O)N[C@@H](CO)C(=O)N[C@H](C(N)=O)C(C)C [VKRWKKWWRKLKKSV] | – | – | ≥ 48.6 | – | – | – | – | – | – | – | MIC [12]: 4.56 µM (≈ 9.38 µg/mL); MIC [13]: 9.12 µM (≈ 18.7 µg/mL); MIC [14]: ≥ 48.6 µM
CC(C)C[C@H](NC(=O)[C@H](Cc1c[nH]c2ccccc12)NC(=O)[C@H](CCC(N)=O)NC(=O)[C@@H](N)C(C)C)C(=O)N[C@@H](CCC(=O)O)C(=O)N[C@@H](CCC(N)=O)C(=O)N[C@@H](CCC(N)=O)C(=O)N[C@H](C(=O)N[C@@H](C)C(=O)N[C@@H](CCCCN)C(=O)N[C@@H](CCCN=C(N)N)C(=O)N[C@@H](CCCN=C(N)N)C(=O)N[C@H](C(=O)N[C@@H](CCCCN)C(=O)N[C@@H](CCCN=C(N)N)C(=O)O)[C@@H](C)O)C(C)C [VQWLEQQVAKRRTKR] | – | – | ≥ 100 | > 100 | – | – | – | – | – | – | MIC [6]: > 100 µM; MIC [7]: ≥ 100 µM; MIC [8]: > 100 µM; MIC [9]: > 100 µM; MIC [10]: > 100 µM; MIC [11]: ≥ 100 µM
